“And” between values parts separate entries of the source, which are not always exact repeats. Identical values can stand only once.
Assays:
Y133 ptk2Δ [1] = assay type: cell-based, S. cerevisiae; settings: relative to Y133, p<0.01
Method: Compounds, initial screening, and IC50 determination: Compounds tested were purchased from Sigma-Aldrich. […] Plates were read on a TECAN M1000 over a 48 hour growth period. […] When presented, IC50 values for growth inhibition were calculated from triplicate 8 point dose curves and SigmaPlot 12.0. When presented, error bars are mean±standard error (S.E.) of at least 3 replicates.

Y133 ptk2Δ [2] = assay type: cell-based, S. cerevisiae
Source text: We deleted PTK2 in our xylose fermenting yeast GLBRCY133 (Parreiras et al.,2014).

[3] = tested on: S. cerevisiae deletion mutants; assay: Chemical genomic profiling of pooled deletion mutants; assay type: cell-based; settings: listed as EMIM-CI
yeast mitochondria = assay: SYTO 16 staining of active mitochondria (microscopy); assay type: cell-based; settings: SYTO 16 stain
Source text: We determined that ionic liquids were more toxic to cells grown on glycerol compared to glucose (FIG. 3A). Using microscopy, we explored the effect of ionic liquids on mitochondria. […] Untreated cells had normal mitochondrial morphology, and at higher doses, mitochondria structures in cells disappeared indicating a loss of functional mitochondria. Finally, we used FACS analysis with the stain 3,3-Dioctadecyloxacarbocyanine perchlorate (“DiO”), which has differential fluorescence depending on mitochondrial membrane potential. In the presence of ionic liquids, we observed a fluorescence shift of DiO, indicating reduced mitochondrial membrane potential (FIGS. 3C-D). Valinomycin was used as a positive control. Hydroxyurea and benomyl were included as negative control agents that causes cell death through a mechanism unrelated to the mitochondria.

[4] = tested on: yeast overexpressing PMA1 or PTK2; assay: Tolerance of PMA1 / PTK2 overexpression strains; assay type: cell-based
[5] = tested on: xylose fermenting yeast GLBRCY133; assay: Growth inhibition IC50, xylose fermenting yeast Y133; assay type: cell-based, S. cerevisiae; settings: Y133 and Y133 ptk2Δ
[6] = tested on: PTK2 deletion mutant in a lab strain background; assay: Growth inhibition IC50, PTK2 deletion mutant in lab strain; assay type: cell-based, S. cerevisiae; settings: deletion mutant of PTK2 in the lab strain
Method: Compounds, initial screening, and IC50 determination: Compounds tested were purchased from Sigma-Aldrich. Cells of S. cerevisiae (MATαpdr1Δ::natMXpdr3Δ::KI.URA3 snq2Δ::KI.LEU2 can1Δ::STE2pr-Sp_his5 lyp1Δhis3Δ1 leu2Δ0 ura3Δ0 met15Δ0), referred to as control strain, were grown in 200 μl cultures at 30° C. in YPD, with a drug or DMSO control. Plates were read on a TECAN M1000 over a 48 hour growth period. The specific growth rate was calculated using GCAT analysis software (available at cat3-pub.glbrc.org on the World Wide Web) (Sato et al., 2013). When presented, IC50 values for growth inhibition were calculated from triplicate 8 point dose curves and SigmaPlot 12.0. When presented, error bars are mean±standard error (S.E.) of at least 3 replicates.

[7] = tested on: S. cerevisiae deletion mutants; assay: Chemical genomic profiling of pooled deletion mutants; assay type: cell-based
Method: FIGS. 1A-B depict chemical genomic profiling of ionic liquids. A genome-wide set of deletion mutants were challenged with a specific compound and grown as a pool for several generations.
(§1) Chemical genomic analysis: Chemical genomic analysis of poacic acid was performed as described as described previously (Fung et al., 2013; Parsons et al., 2006). The tested yeast deletion collection had 4000 strains using the genetic background described in Andrusiak (2012). The optimal inhibitory concentration of poacic acid for chemical genomic profiling (70-80% growth versus solvent control in YP-galactose media after 24 hours of growth) was determined using an 8 point dose curve. A concentration of 88 μg/ml inhibited growth within this range. 200 μl cultures of the pooled, deletion collection of S. cerevisiae deletion mutants were grown with 88 μg/ml poacic acid or a DMSO control in triplicate for 48 hours at 30° C. Genomic DNA was extracted using the Epicentre MasterPure™ Yeast DNA purification kit. Mutant-specific molecular barcodes were amplified with specially designed multiplex primers (Smith et al., 2009). The barcodes were sequenced using an Illumina MiSeq. Three replicates of each condition (poacic acid vs. DMSO) were sequenced. One DMSO control was lost due to poor sequencing reads. The barcode counts for each yeast deletion mutant in the presence of poacic acid were normalized against the DMSO control conditions to define sensitivity or resistance of individual strains. To determine a p-value for each top sensitive and resistant mutant, we used the EdgeR package (Robinson et al., 2014, 2010). A Bonferroni-corrected hypergeometric distribution test was used to search for significant enrichment of GO terms among the top 10 sensitive and resistant deletion mutants (Boyle et al., 2004). To understand the pathways that were most affected by poacic acid we developed a protein complex/pathway score based on the summation of the z-scores for each complex/pathway (Pathway z-score). Correlation of the chemical genomic profile of poacic acid with the yeast genetic interaction network to was done as described in Costanzo et al. (2010).

S. cerevisiae = assay: Dose curve for chemical genomic profiling concentration; assay type: cell-based; settings: 88 μg/ml, YP-galactose media, 24 hours
Method: as §1, with “To determine a p-value for each top sensitive and resistant mutant, we used the EdgeR package (Robinson et al., 2014, 2010). A Bonferroni-corrected hypergeometric distribution test was used to search for significant enrichment of GO terms among the top 10 sensitive and resistant deletion mutants (Boyle et al., 2004). To understand the pathways that were most affected by poacic acid we developed a protein complex/pathway score based on the summation of the z-scores for each complex/pathway (Pathway z-score). Correlation of the chemical genomic profile of poacic acid with the yeast genetic interaction network to was done as described in Costanzo et al. (2010).” left out

## CCCCn1cc[n+](C)c1.[Cl-] [BMIM-Cl, 1-butyl-3-methylimidazolium chloride]
Y133 ptk2Δ [1]
  tolerance conferred by deletion of PTK2 in Y133: significantly greater tolerance
Y133 ptk2Δ [2]; 1% BMIM-Cl, aerobic and anaerobic conditions
  tolerance and fermentative capacity of PTK2 deletion: greater tolerance and has greater fermentative capacity

## CC(=O)[O-].CCn1cc[n+](C)c1 [EMIM-Ac, 1-ethyl-3-methylimidazolium acetate]
Y133 ptk2Δ [1]
  tolerance conferred by deletion of PTK2 in Y133: significantly greater tolerance

## CCn1cc[n+](C)c1.[Cl-] [EMIM-Cl, 1-ethyl-3-methylimidazolium chloride]
[3]; HMI1 deletion mutant
  Fold Change: 0.1939
[3]; LYS5 deletion mutant
  Fold Change: 0.1821
[3]; MCT1 deletion mutant
  Fold Change: 0.1576
[3]; SHE9 deletion mutant
  Fold Change: 0.2014
Y133 ptk2Δ [1]
  tolerance conferred by deletion of PTK2 in Y133: significantly greater tolerance
Yeast mitochondria
  effect on staining of active mitochondria: dose-dependent effect
[4]; PMA1 overexpression, p<0.01
  EMIM-Cl tolerance on increased expression of PMA1: significant decrease
[4]; PTK2 overexpression
  EMIM-Cl tolerance on overexpression of PTK2: reduced EMIM-Cl tolerance, but not significantly
[5]
  effects on growth at pH 6.5 versus pH 5.0: much greater
[6]
  resistant to concentration: over 5%
Y133 ptk2Δ [2]; in the presence of 1% EMIM-Cl, versus Y133
  sugar conversion (glucose and xylose) and ethanol production of PTK2 mutant: significantly improved
[7]; APM3 deletion mutant
  Fold Change: 0.5222
[7]; ARG2 deletion mutant, listed as EMIM-CI
  Fold Change: 0.1706
[7]; ARX1 deletion mutant
  Fold Change: 1.688
[7]; AVT3 deletion mutant
  Fold Change: 1.575
[7]; AVT5 deletion mutant
  Fold Change: 1.933
[7]; BAP2 deletion mutant
  Fold Change: 1.689
[7]; BNI4 deletion mutant
  Fold Change: 1.665
[7]; BUD8 deletion mutant
  Fold Change: 0.6034
[7]; CAT5 deletion mutant
  Fold Change: 0.4405
[7]; CTF4 deletion mutant
  Fold Change: 2.67
[7]; DAN1 deletion mutant
  Fold Change: 0.5786
[7]; DBF2 deletion mutant
  Fold Change: 1.927
[7]; DBP3 deletion mutant
  Fold Change: 1.709
[7]; DEP1 deletion mutant
  Fold Change: 2.106
[7]; DIA2 deletion mutant
  Fold Change: 2.886
[7]; DOA1 deletion mutant
  Fold Change: 1.661
[7]; DPB3 deletion mutant
  Fold Change: 1.946
[7]; ERF2 deletion mutant
  Fold Change: 1.477
[7]; GAL1 deletion mutant
  Fold Change: 0.1962
[7]; GAL1 deletion mutant, listed as EMIM-CI
  Fold Change: 0.1962
[7]; GRX2 deletion mutant
  Fold Change: 0.3394
[7]; HIR2 deletion mutant
  Fold Change: 0.4587
[7]; HMI1 deletion mutant
  Fold Change: 0.1939
[7]; IRA2 deletion mutant
  Fold Change: 0.4076
[7]; IST3 deletion mutant
  Fold Change: 1.899
[7]; LIA1 deletion mutant
  Fold Change: 1.621
[7]; LYS2 deletion mutant
  Fold Change: 0.4622
[7]; LYS5 deletion mutant
  Fold Change: 0.1821
[7]; LYS14 deletion mutant
  Fold Change: 0.3984
[7]; MCT1 deletion mutant
  Fold Change: 0.1576
[7]; MEI4 deletion mutant
  Fold Change: 1.592
[7]; MF(ALPHA)2 deletion mutant
  Fold Change: 0.6154
[7]; NMD2 deletion mutant
  Fold Change: 1.614
[7]; OLA1 deletion mutant
  Fold Change: 1.645
[7]; PEX32 deletion mutant
  Fold Change: 2.103
[7]; PMT1 deletion mutant
  Fold Change: 1.712
[7]; PPM1 deletion mutant
  Fold Change: 0.3444
[7]; PTK2 deletion mutant
  Fold Change: 12
[7]; PUF4 deletion mutant
  Fold Change: 0.1863
[7]; PUF4 deletion mutant, listed as EMIM-CI
  Fold Change: 0.1863
[7]; PUF6 deletion mutant
  Fold Change: 1.748
[7]; QCR2 deletion mutant, listed as EMIM-CI
  Fold Change: 0.195
[7]; RCR1 deletion mutant
  Fold Change: 0.4508
[7]; REI1 deletion mutant
  Fold Change: 2.168
[7]; RHO2 deletion mutant
  Fold Change: 1.785
[7]; RIM1 deletion mutant, listed as EMIM-CI
  Fold Change: 0.1974
[7]; RNP1 deletion mutant
  Fold Change: 1.495
[7]; ROM2 deletion mutant
  Fold Change: 2.198
[7]; RPL11B deletion mutant
  Fold Change: 1.725
[7]; RPL19A deletion mutant
  Fold Change: 1.875
[7]; RPL19B deletion mutant
  Fold Change: 1.56
[7]; RPL24B deletion mutant
  Fold Change: 2.086
[7]; RPS10A deletion mutant
  Fold Change: 2.351
[7]; RPS18B deletion mutant
  Fold Change: 1.743
[7]; RPS28B deletion mutant
  Fold Change: 2.088
[7]; RRI1 deletion mutant
  Fold Change: 0.6151
[7]; SAP155 deletion mutant
  Fold Change: 1.704
[7]; SAP185 deletion mutant
  Fold Change: 0.649
[7]; SAY1 deletion mutant
  Fold Change: 1.592
[7]; SHE9 deletion mutant
  Fold Change: 0.2014
[7]; SIN3 deletion mutant
  Fold Change: 2.02
[7]; SKY1 deletion mutant
  Fold Change: 4.5 and 4.547
[7]; SPS4 deletion mutant
  Fold Change: 0.5658
[7]; SSK2 deletion mutant
  Fold Change: 1.579
[7]; SUR4 deletion mutant
  Fold Change: 2.535
[7]; SVL3 deletion mutant
  Fold Change: 0.3847
[7]; SWI6 deletion mutant
  Fold Change: 1.902
[7]; TOP1 deletion mutant
  Fold Change: 1.759
[7]; TRP2 deletion mutant
  Fold Change: 1.685
[7]; TSR2 deletion mutant
  Fold Change: 1.94
[7]; TYE7 deletion mutant
  Fold Change: 0.4859
[7]; UBC4 deletion mutant
  Fold Change: 1.541
[7]; UBP14 deletion mutant
  Fold Change: 1.534
[7]; UPF3 deletion mutant
  Fold Change: 1.61
[7]; VPS38 deletion mutant
  Fold Change: 1.666
[7]; YBR090C deletion mutant
  Fold Change: 0.5882
[7]; YDL118W deletion mutant
  Fold Change: 1.522
[7]; YDL172C deletion mutant
  Fold Change: 1.636
[7]; YGR237C deletion mutant
  Fold Change: 0.5496
[7]; YHB1 deletion mutant
  Fold Change: 0.5611
[7]; YIH1 deletion mutant
  Fold Change: 1.762
[7]; YIL141W deletion mutant
  Fold Change: 1.524
[7]; YIR044C deletion mutant
  Fold Change: 0.5723
[7]; YLR194C deletion mutant
  Fold Change: 0.5909
[7]; YLR279W deletion mutant
  Fold Change: 0.5779
[7]; YLR434C deletion mutant
  Fold Change: 1.5
[7]; YMR193C-A deletion mutant
  Fold Change: 1.867
[7]; YOL162W deletion mutant
  Fold Change: 0.5537
[7]; YPL205C deletion mutant
  Fold Change: 1.523
[7]; YPR130C deletion mutant
  Fold Change: 0.5263
[7]; YPS7 deletion mutant
  Fold Change: 1.508
[7]; YPT7 deletion mutant
  Fold Change: 0.1584
[7]; YPT7 deletion mutant, listed as EMIM-CI
  Fold Change: 0.1584
[7]; YSP2 deletion mutant
  Fold Change: 1.618
[7]; ZDS1 deletion mutant
  Fold Change: 0.6026

## poacic acid
S. cerevisiae
  growth versus solvent control: 70-80%
